Patent US20210386814A1, “METHODS AND COMPOUND FOR THE TREATMENT OF MALARIA” (priority 2020, published 2021)
Converted amounts (≈) assume the structure as drawn. Like-named read-outs stand apart in the source and are kept apart here.

Experiments:
P. falciparum culture = settings: cited from earlier work
[1] = system: RF laboratory strain of HIV-1; experiment: antiviral evaluation in CEM-SS cell line against HIV-1 RF; format: cell-based; settings: CEM-SS cells, HIV-1 RF strain
Protocol: The purified fraction 90I may yield a fifty percent effective concentration (EC50) of 0.020 ug/ml. At the same time, there was no discernible drug induced toxicity in this study (50% inhibitory concentration ([…]) was greater than the high-test concentration of 100 ug/ml).

gamma interferon = experiment: in vitro gamma interferon production; format: cell-based
From the text: Moreover, the increase in gamma interferon may have a far greater impact on reversing the course of HIV-1 infection. […] Therefore, further evaluation of 90I in malaria cell-lines may provide the opportunity to find new clinical uses for an established HIV antiprotease patented drug. Also, the purpose of this approach is to lower the costs and shorten the timeframe of product development.

[2] = biological target: P. falciparum lactate dehydrogenase (Plasmodium falciparum, UniProt Q27743); settings: cited from earlier work
[3] = biological target: P. falciparum aspartic protease plasmepsin II (Plasmodium falciparum, UniProt P46925); settings: read-out: 1050, plasmepsin II; cited from earlier work
Chain of P. falciparum aspartic protease plasmepsin II (P46925 125-453): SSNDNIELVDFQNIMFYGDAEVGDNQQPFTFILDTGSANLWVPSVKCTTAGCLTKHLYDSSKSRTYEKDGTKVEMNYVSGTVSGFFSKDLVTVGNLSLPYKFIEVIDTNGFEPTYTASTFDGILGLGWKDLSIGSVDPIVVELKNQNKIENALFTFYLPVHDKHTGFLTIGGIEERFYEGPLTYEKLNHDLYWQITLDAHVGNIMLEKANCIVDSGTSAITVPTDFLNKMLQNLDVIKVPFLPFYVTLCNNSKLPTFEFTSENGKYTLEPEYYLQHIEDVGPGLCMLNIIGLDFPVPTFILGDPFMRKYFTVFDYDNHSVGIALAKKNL

Chain of P. falciparum lactate dehydrogenase (Q27743 whole entry): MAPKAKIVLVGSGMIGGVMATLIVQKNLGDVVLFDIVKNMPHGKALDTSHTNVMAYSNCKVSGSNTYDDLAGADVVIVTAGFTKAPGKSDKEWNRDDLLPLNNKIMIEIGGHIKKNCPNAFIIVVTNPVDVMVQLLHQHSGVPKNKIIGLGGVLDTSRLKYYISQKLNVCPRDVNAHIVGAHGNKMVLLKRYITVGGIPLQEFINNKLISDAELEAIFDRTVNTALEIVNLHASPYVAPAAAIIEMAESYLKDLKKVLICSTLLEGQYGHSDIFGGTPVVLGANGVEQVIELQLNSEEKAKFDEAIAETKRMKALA

Compound: CC(C)C[C@H](NC(=O)[C@H]1O[C@@H]1C(=O)O)C(=O)NCCCCN=C(N)N (relative stereo) [E64, trans-Epoxysuccinyl-L-leucylamido(4-guanidino)butane]
- effects on P. falciparum culture (P. falciparum culture): blocked parasite release

Compound: O=C(OCCOCCOC(=O)c1ccccc1)c1ccccc1 [90I, diethylene glycol dibenzoate]
- therapeutic index (T1=IC50/EC50) [1]: greater than 5000
- EC50 ([1]; Human immunodeficiency virus 1, read-out: fifty percent effective concentration (EC50)): 0.02 µg/mL (≈ 0.0636 µM)
- production of gamma interferon (gamma interferon): increased production of gamma interferon

Compound: CC(=O)N[C@@H](CC(C)C)C(=O)N[C@@H](CC(C)C)C(=O)N[C@H](C=O)CCCNC(=N)N [Leupeptin, N-acetyl-L-leucyl-L-leucy-L-argininal]
- effects on P. falciparum culture (P. falciparum culture; 10 μg/ml): All three of these effects were also seen

Compound: CCCC[C@@H](C=O)NC(=O)[C@H](CC(C)C)NC(=O)OCc1ccccc1 [calpeptin]
- effects on P. falciparum culture (P. falciparum culture; 1 μM): All three of these effects were also seen

Compound: CCN(CC)CCCC(C)Nc1ccnc2cc(Cl)ccc12 (centres unmarked) [chloroquine]
- inhibition of lactate dehydrogenase [2]: weak inhibitor

Compound: Cc1cccc(C)c1OCC(=O)N[C@@H](Cc1ccccc1)[C@@H](O)C[C@H](Cc1ccccc1)NC(=O)[C@H](C(C)C)N1CCCNC1=O [lopinavir]
- IC50 [3]: 2.7 µM
